Measurements reported in US20260256772A1, “BENZOTHIAZOLE COMPOUND AND USE THEREOF” (NANJING REJU THERAPEUTICS, INC., priority 2022, published 2026).

What was measured:
aging skin = assay: Aging skin, naturally aging mouse model; assay type: in vivo, C57bl/6J mice; conditions: skin application twice a week for 6 consecutive weeks, FIG. 10
Method: In this test example, aged female C57bl/6J mice (22 months old) were used. The drug was administered by skin application twice a week for 6 consecutive weeks.

osteoarthritis = assay: Osteoarthritis animal model; assay type: in vivo, mice; conditions: intra-articular injection, FIG. 7
Method: In this test example, the efficacy of the compounds of the present disclosure was tested on osteoarthritis in an osteoarthritis animal model.
The osteoarthritis animal model was constructed by the following steps. The mice were anesthetized with isoflurane, and fixed. The hair on the right hind limb of the mice was shaved and the skin was disinfected with alcohol, and the skin of the joints was cut. Under an optical microscope, the inside of the right knee joint was incised longitudinally with a blade, without cutting the patellar ligament. The patellar ligament was pulled to one side with constant hemostasis by compression with sterile cotton swabs such that the joint cavity was fully exposed. Saline was added dropwise in time to avoid the drying up of the joint cavity. The excess muscle tissue was gently separated with a blunt forceps to expose the meniscus ligament. The anterior cruciate ligament was found in the depth of the joint cavity and cut with a micro scissor. Then the wound was disinfected with penicillin solution, the muscle was sutured with sterile needle and thread, and the skin tissue was finally sutured. The efficacy of the drug was determined by intra-articular injection administration. At the endpoint of the test, continued pain threshold of the plantar was detected, and the bone joints were stained with safranin fast green.

hepatic fibrosis = assay: Hepatic fibrosis mouse model (CCl4); assay type: in vivo, C57BL/6N mice; conditions: FIG. 9; for serum alanine aminotransferase (ALT) levels / serum aspartate aminotransferase (AST) levels: intraperitoneal (IP) injection twice a week from third week of modelling; for pathology scores: intraperitoneal (IP) injection, liver Masson staining
Method: In this test example, the efficacy of the compounds of the present disclosure was tested on hepatic fibrosis in an animal model of hepatic fibrosis. Briefly, C57BL/6N mice, male, 7 to 8 weeks old, 24 to 28 g of body weight, were used. The mouse model of hepatic fibrosis was induced by intraperitoneal injection of CCl4 solution at a dosage of 1 mL/kg, with a dosing frequency of 2 times/week, and a modelling cycle of 6 weeks. Dosing via intraperitoneal injection was started starting from the third week of modelling twice a week. At the end of the test, serum was collected, and liver tissue was taken for Masson staining index assay.

[1] = system: wet-age-related macular degeneration; assay: CNV animal model of wet-age-related macular degeneration; assay type: in vivo, mice; conditions: intravitreal (IVT), FIG. 5
Method: In this test example, the efficacy of the compounds of the present disclosure was tested on wet-age-related macular degeneration in a CNV animal model.
Male mice were administered 0.5% probacaine hydrochloride (Alcon) for local anesthesia, and 1% tropicamide to dilate the pupils of the mice. Laser cauterization was performed using a laser photocoagulator (Novus Varia, LUMENIS) with a slit lamp delivery system. And artificially torn adherent glass coverslips were used as contact lenses. Bleeding spots caused by lasers were not included in the statistics. In each experimental group, six mice were analyzed with four impacts per eye to overcome inherent variability.

[2] = system: idiopathic pulmonary fibrosis; assay: Idiopathic pulmonary fibrosis animal model (bleomycin); assay type: in vivo, SD rats; conditions: intraperitoneal (IP) 5 mg/kg, 3 consecutive weeks, FIG. 6; for pathology scores: H&E and Masson staining; for WBC: alveolar lavage fluid; for HYP: lung tissue
Method: In this test example, the efficacy of the compounds of the present disclosure was tested on idiopathic pulmonary fibrosis in an idiopathic pulmonary fibrosis animal model. Briefly, anesthetized 6-week-old SD rats were fixed on a foam board with medical tape. Firstly, the skin on the surface of the trachea was cut with surgical scissors to fully expose the trachea, and a 100-microlitre micro-syringe containing a certain volume of bleomycin (BLM 5 mg/kg) solution drawn based on the body weight of the rat was inserted into the trachea through the oral cavity to administer by slow bolus injection. After administration of the BLM solution, the foam plate was immediately rotated and shaken to distribute the BLM solution as evenly as possible in the lung tissue. Then the skin on the surface of the trachea was sutured with surgical sutures and about 0.5 to 1.0 mL of penicillin solution was dripped onto the epidermis to prevent infection of the surgical wound. After the 7th day of modelling, the compound solution of the present disclosure was administered via intraperitoneal (IP) injection (5 mg/kg) according to the weight of the rat for 3 consecutive weeks. Rats were euthanized by carbon dioxide on Day 28, the lung tissues were removed, the left alveolar lavage fluid was collected for white blood cell (WBC) counting, the right lung tissue portion was used for hydroxyproline (HYP) assay, and the remaining lung tissues were stained for pathology by H&E staining and Masson staining.

hypertrophic scars = assay: Rabbit ear hypertrophic scar model; assay type: in vivo, New Zealand white rabbits; conditions: 150 μM, 100 μL injected into each lesion once a week, 4 injections, FIG. 12
Method: In this test example, the efficacy of the compounds of the present disclosure was tested on hypertrophic scars in a rabbit ear hypertrophic scar animal model. Briefly, 15 New Zealand white rabbits, male, 3 months old, were used. The New Zealand rabbits were anaesthetized with sodium pentobarbital and six circular full-thickness wounds with a diameter of 10 mm were made on the ventral surface of each ear by removing the epidermis, dermis and perichondrium to expose the cartilage. The rabbits were randomly divided into control, RX001 experimental and RX301 experimental groups. On postoperative day 14, after complete re-epithelialization of the wound surface, the compound (150 μM, 100 μL, dissolved in DMSO solution) or negative control DMSO 100 μL was injected into the center of each lesion from the wound edge once a week for a total of 4 injections. Improvement of scar formation by the drugs was assessed by SEI (Scar Excess Index).

diabetic retinopathy = assay: Mouse model of diabetic retinopathy (STZ), retinal Evans blue penetration assay; assay type: in vivo; conditions: intravitreal (IVT), 1 μL of 200 μM at 8 and 9 weeks after STZ, FIG. 4
Method: The efficacy of the compounds of the present disclosure was studied in a mouse model of diabetic retinopathy by multiple administrations of streptozotocin (STZ). C57BL/6J mice at 6 to 7 weeks were weighed and their baseline blood glucose was measured (Sino). STZ (Sigma-Alderich) was injected intraperitoneally into the mice at 55 mg/Kg for five consecutive days. Age-matched controls were injected with buffer only. Blood glucose was measured again one week after the last STZ injection. 1 μL of the test compound (200 μM, a suspension formulated in 0.015% polysorbate 80, 0.2% sodium phosphate, 0.75% sodium chloride, pH 7.2) was injected intravitreally into the STZ-treated diabetic C57BL/6J mice at 8 and 9 weeks after STZ administration. 10 weeks after STZ treatment, the retinal Evans blue penetration assay was performed.

| Structure (SMILES) | epidermal thickness scores of the skins (aging skin) | pathology scores of safranin fast green staining (osteoarthritis) | plantar mechanical pain threshold (osteoarthritis) | serum alanine aminotransferase (ALT) levels (hepatic fibrosis) | serum aspartate aminotransferase (AST) levels (hepatic fibrosis) | pathology scores (hepatic fibrosis) | fluorescence intensity indicators [1] | pathology scores [2] | WBC [2] | HYP [2] | scar excess index (hypertrophic scars) | vascular permeability, choroidal vascular leakage (diabetic retinopathy) | vascular permeability, retinal vascular leakage (diabetic retinopathy) |
| --- | --- | --- | --- | --- | --- | --- | --- | --- | --- | --- | --- | --- | --- |
| CCN1CCN(C(=O)c2nc(N3CCc4cccc(C(=O)Nc5nc6ccccc6s5)c4C3)ccc2-c2cnn(CC34CC5CC(CC(C5)C3)C4)c2C)CC1 [RX001] | statistically significant improvements | statistically significant improvements | statistically significant improvements | statistically significant improvements | statistically significant improvements | statistically significant improvements | statistically significant improvements | statistically significant improvements | statistically significant improvements | statistically significant improvements | statistically significant improvement | improved | improved |
| Cc1c(-c2ccc(N3CCc4cccc(C(=O)Nc5nc6ccccc6s5)c4C3)nc2C(=O)N2CCC(CCOP(=O)(O)O)CC2)cnn1CC12CC3CC(CC(C3)C1)C2 [RX301] | statistically significant improvements | statistically significant improvements | statistically significant improvements | statistically significant improvements | statistically significant improvements | statistically significant improvements | statistically significant improvements | statistically significant improvements | statistically significant improvements | statistically significant improvements | statistically significant improvement | improved | improved |
